Measured values published in the NIST ThermoML archive (doi:10.1016/j.fluid.2006.12.015).
Numbers after ± are expanded uncertainties.

How the values were obtained:
[1] = Liquid, Ebulliometric method (Recirculating still)
[2] = refractive index (Na D-line) (dimensionless); conditions: 298.15 K; 101.33 kPa; Liquid; Standard Abbe refractometry

CCOC(C)(C)C [2-ethoxy-2-methylpropane]
[1]
Conditions | vapor or sublimation pressure [kPa]
312.51 K | 30.76 ± 0.37
318.88 K | 39.54 ± 0.37
326.24 K | 52.05 ± 0.39
331.11 K | 62.01 ± 0.4
333.15 K | 66.52 ± 0.51
335.04 K | 71.06 ± 0.42
339.18 K | 81.64 ± 0.43
342.53 K | 91.06 ± 0.45
343.15 K | 92.96 ± 0.56
345.9 K | 101.41 ± 0.46

Conditions | refractive index
[2] | 1.373 ± 0.0007

CCSCC [3-thiapentane]
[1]
Conditions | vapor or sublimation pressure [kPa]
333.15 K | 34.97 ± 0.41
343.15 K | 50.14 ± 0.45
353.15 K | 70.15 ± 0.49

Conditions | refractive index
[2] | 1.44 ± 0.0007

C1CCCCC1 [cyclohexane]
[1]
Conditions | vapor or sublimation pressure [kPa]
318.47 K | 30.51 ± 0.37
326.06 K | 40.65 ± 0.37
331.63 K | 49.56 ± 0.38
337.52 K | 60.6 ± 0.39
342.21 K | 70.8 ± 0.41
343.15 K | 72.66 ± 0.52
346.25 K | 80.64 ± 0.43
350.08 K | 90.89 ± 0.44
353.15 K | 99.41 ± 0.58
353.32 K | 100.38 ± 0.45

Conditions | refractive index
[2] | 1.4235 ± 0.0007

Cc1ccccc1 [toluene]
Conditions | refractive index
[2] | 1.4939 ± 0.0007
